Like-named read-outs stand apart in the source and are kept apart here.
Tests used:
[1] = target: T1, Xenopus laevis VDR (Xenopus laevis, UniProt O13124); assay: luciferase reporter transactivation assay in HepG2-NTCP cells, GAL4/xlVDR LBD chimera with tk-UAS-Luc; type: cell-based; conditions: for EC50: read-out: Xenopus VDR EC50 ± SD; for Effect on Xenopus laevis VDR: screening for activators, at least three concentrations of each drug
T1 sequence (O13124 90-422): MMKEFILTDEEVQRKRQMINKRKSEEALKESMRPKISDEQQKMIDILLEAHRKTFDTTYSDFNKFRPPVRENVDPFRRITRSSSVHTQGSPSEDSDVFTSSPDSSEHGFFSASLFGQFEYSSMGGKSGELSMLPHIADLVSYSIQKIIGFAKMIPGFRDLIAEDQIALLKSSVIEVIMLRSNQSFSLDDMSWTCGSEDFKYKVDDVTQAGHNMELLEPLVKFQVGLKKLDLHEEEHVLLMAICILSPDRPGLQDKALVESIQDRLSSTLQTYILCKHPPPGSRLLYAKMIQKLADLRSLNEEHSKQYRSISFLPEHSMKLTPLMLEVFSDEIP

[2] = target: T2, Human VDR (Homo sapiens, UniProt P11473); assay: luciferase reporter transactivation assay in HepG2-NTCP cells, full-length hVDR with CYP3A4-PXRE-Luc
T2 sequence (P11473 1-427): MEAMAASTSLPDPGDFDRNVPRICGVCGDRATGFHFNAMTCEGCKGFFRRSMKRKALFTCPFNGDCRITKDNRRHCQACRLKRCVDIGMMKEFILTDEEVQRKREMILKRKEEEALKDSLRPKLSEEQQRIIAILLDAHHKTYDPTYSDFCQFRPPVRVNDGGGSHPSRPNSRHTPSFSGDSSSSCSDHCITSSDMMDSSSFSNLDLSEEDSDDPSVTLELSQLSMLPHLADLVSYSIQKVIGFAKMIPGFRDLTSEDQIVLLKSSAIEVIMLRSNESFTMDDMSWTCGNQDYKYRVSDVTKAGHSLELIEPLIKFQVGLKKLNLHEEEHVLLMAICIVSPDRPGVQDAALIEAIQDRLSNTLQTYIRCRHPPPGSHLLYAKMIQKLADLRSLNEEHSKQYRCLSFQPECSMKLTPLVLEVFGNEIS

[3] = target: T3, Zebrafish VDR (Danio rerio, UniProt Q9PTN2); assay: luciferase reporter transactivation assay in HepG2-NTCP cells, GAL4/zfVDR LBD chimera with tk-UAS-Luc; type: cell-based; conditions: for EC50: read-out: Zebrafish VDR EC50 ± SD; for Effect on zebrafish VDR: screening for activators, at least three concentrations of each drug
T3 sequence (Q9PTN2 121-453): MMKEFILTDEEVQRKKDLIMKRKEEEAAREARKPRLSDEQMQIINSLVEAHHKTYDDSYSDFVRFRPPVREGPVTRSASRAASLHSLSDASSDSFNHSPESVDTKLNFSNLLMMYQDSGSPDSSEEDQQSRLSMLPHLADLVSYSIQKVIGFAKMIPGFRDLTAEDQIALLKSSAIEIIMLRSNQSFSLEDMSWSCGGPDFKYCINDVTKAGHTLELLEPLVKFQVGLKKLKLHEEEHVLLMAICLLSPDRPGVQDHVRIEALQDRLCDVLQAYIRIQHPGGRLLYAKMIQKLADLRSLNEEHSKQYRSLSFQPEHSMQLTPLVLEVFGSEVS

[4] = target: T4, Mouse VDR (Mus musculus, UniProt P48281); assay: luciferase reporter transactivation assay in HepG2-NTCP cells, full-length mVDR with CYP3A4-PXRE-Luc
T4 sequence (P48281 1-422): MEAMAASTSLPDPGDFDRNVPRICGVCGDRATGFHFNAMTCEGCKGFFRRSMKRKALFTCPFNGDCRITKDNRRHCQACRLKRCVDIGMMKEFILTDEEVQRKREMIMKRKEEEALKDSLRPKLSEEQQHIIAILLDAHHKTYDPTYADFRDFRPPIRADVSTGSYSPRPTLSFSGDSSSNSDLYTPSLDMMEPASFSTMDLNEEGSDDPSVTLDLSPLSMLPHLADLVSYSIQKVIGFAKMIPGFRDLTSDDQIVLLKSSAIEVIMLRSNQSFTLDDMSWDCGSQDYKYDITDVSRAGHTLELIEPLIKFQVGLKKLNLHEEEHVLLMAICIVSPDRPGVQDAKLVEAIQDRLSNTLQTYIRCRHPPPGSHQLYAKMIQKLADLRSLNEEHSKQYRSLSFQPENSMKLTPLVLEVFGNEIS

[5] = test system: Ciona VDR/PXR
[6] = target: T5, Sea lamprey VDR (Petromyzon marinus, UniProt Q7ZZY9); type: cell-based; conditions: for Effect on sea lamprey VDR: screening for activators, at least three concentrations of each drug
T5 sequence (Q7ZZY9 92-406): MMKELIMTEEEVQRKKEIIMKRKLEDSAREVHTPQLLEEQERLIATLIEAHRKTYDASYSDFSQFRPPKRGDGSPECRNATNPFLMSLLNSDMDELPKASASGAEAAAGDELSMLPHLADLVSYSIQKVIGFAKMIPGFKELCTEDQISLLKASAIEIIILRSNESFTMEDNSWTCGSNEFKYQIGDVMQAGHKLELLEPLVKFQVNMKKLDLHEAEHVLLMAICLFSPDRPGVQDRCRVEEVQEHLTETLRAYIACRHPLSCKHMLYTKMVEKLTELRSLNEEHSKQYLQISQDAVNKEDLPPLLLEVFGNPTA

[7] = HepG2-NTCP cells, luciferase reporter
[8] = HepG2-NTCP cells, luciferase reporter, unit not given, also cells saying No effect
[9] = relative to maximal reference compound (1 μM calcitriol, efficacy = 1.0)

## C=C1/C(=C\C=C2/CCC[C@]3(C)[C@@H]([C@H](C)/C=C/[C@H](C)C(C)C)CC[C@@H]23)C[C@@H](O)C[C@@H]1O [1α-Hydroxyvitamin D2]
[1]; [7]
  EC50: 624 ± 49 nM
[2]
  EC50: 13 ± 1.2 nM
[3]; [7]
  EC50: 26 ± 1.7 nM
[4]
  EC50: 0.8 ± 0.1 nM

## C=C1/C(=C\C=C2/CCC[C@]3(C)[C@@H]([C@H](C)CCCC(C)C)CC[C@@H]23)C[C@@H](O)C[C@@H]1O [1α-Hydroxyvitamin D3]
[1]; [7]
  EC50: 157 ± 10 nM
[2]
  EC50: 4.3 ± 0.5 nM
[3]; [7]
  EC50: 18 ± 1.4 nM
[4]
  EC50: 0.3 ± 0.04 nM

## C[C@H](CCC(=O)O)[C@H]1CC[C@H]2[C@@H]3CC[C@@H]4CC(=O)CC[C@]4(C)[C@H]3CC[C@]12C [3-Ketolithocholic acid]
[1]; [8]
  Xenopus VDR EC50 ± SD: No effect
[1]
  Effect on Xenopus laevis VDR: No effect
[5]
  Ciona VDR/PXR EC50 ± SD: No effect
[2]
  Human VDR EC50 ± SD: 55 ± 8.1 (0.17)
[6]; [8]
  Sea lamprey VDR EC50 ± SD: No effect
[6]
  Effect on sea lamprey VDR: No effect
[3]; [8]
  Zebrafish VDR EC50 ± SD: No effect
[3]
  Effect on zebrafish VDR: No effect
[4]
  Mouse VDR EC50 ± SD: 20 ± 0.3 (0.58)

## O=Cc1c2[nH]c3ccccc3c2cc2[nH]c3ccccc3c12 [6-Formylindolo-[3,2-b]-carbazole]
[1]; [9]
  Xenopus VDR relative efficacy: ~0.10
[5]; relative to maximal reference compound (20 μM 6-formylindolo-[3,2-b]-carbazole, efficacy = 1.0)
  Ciona VDR/PXR relative efficacy: 1.0
[5]; unpublished data of the authors
  activation of ciVDR/PXR: activated
[2]; [9]
  Human VDR relative efficacy: ~0.12
[6]
  Sea lamprey VDR relative efficacy: 0.25
[3]; [9]
  Zebrafish VDR relative efficacy: < 0.03
[4]; relative to maximal reference compound (0.5 μM calcitriol, efficacy = 1.0)
  Mouse VDR relative efficacy: ~0.08

## C[C@]12CC[C@@H](O)C[C@H]1CC[C@@H]1[C@@H]2[C@@H](O)C[C@@]2(C)[C@H]1CC[C@]2(O)C(=O)CO [Tetrahydrocortisol]
[1]
  Effect on Xenopus laevis VDR: No effect
[6]
  Effect on sea lamprey VDR: No effect
[3]
  Effect on zebrafish VDR: No effect

## C[C@]12CC[C@@H](O)C[C@H]1CC[C@@H]1[C@@H]2C(=O)C[C@@]2(C)[C@H]1CC[C@]2(O)C(=O)CO [Tetrahydrocortisone]
[1]
  Effect on Xenopus laevis VDR: No effect
[6]
  Effect on sea lamprey VDR: No effect
[3]
  Effect on zebrafish VDR: No effect

## Cc1c(C)c2c(c(C)c1O)CCC(C)(COc1ccc(CC3SC(=O)NC3=O)cc1)O2 (centres unmarked) [Troglitazone]
[1]
  Effect on Xenopus laevis VDR: No effect
[6]
  Effect on sea lamprey VDR: No effect
[3]
  Effect on zebrafish VDR: No effect

## CC(C)=CCC/C(C)=C/CC/C(C)=C/CC/C(C)=C/CC1=C(C)C(=O)c2ccccc2C1=O [Vitamin K2]
[1]
  Effect on Xenopus laevis VDR: No effect
[6]
  Effect on sea lamprey VDR: No effect
[3]
  Effect on zebrafish VDR: No effect

## CC1=CC(=O)c2ccccc2C1=O [Vitamin K3]
[1]
  Effect on Xenopus laevis VDR: No effect
[6]
  Effect on sea lamprey VDR: No effect
[3]
  Effect on zebrafish VDR: No effect

## Cc1cccc(Nc2cc(Cl)nc(SCC(=O)O)n2)c1C [WY-14643]
[1]
  Effect on Xenopus laevis VDR: No effect
[6]
  Effect on sea lamprey VDR: No effect
[3]
  Effect on zebrafish VDR: No effect

## C/C=C1\C(=O)C[C@H]2[C@@H]3CCC4=CC(=O)CC[C@]4(C)[C@H]3CC[C@]12C [Z-Guggulsterone]
[1]
  Effect on Xenopus laevis VDR: No effect
[6]
  Effect on sea lamprey VDR: No effect
[3]
  Effect on zebrafish VDR: No effect

## C[C@H](CCC(=O)O)[C@H]1CC[C@H]2[C@@H]3[C@H](O)[C@@H](O)[C@@H]4C[C@H](O)CC[C@]4(C)[C@H]3CC[C@]12C [a-Muricholic acid]
[1]
  Effect on Xenopus laevis VDR: No effect
[6]
  Effect on sea lamprey VDR: No effect
[3]
  Effect on zebrafish VDR: No effect

## C[C@H](CCC(=O)O)[C@H]1CC[C@H]2[C@@H]3[C@@H](O)[C@@H](O)[C@@H]4C[C@H](O)CC[C@]4(C)[C@H]3CC[C@]12C [b-Muricholic acid]
[1]
  Effect on Xenopus laevis VDR: No effect
[6]
  Effect on sea lamprey VDR: No effect
[3]
  Effect on zebrafish VDR: No effect

## NC(=O)N1c2ccccc2C=Cc2ccccc21 [carbamazepine]
[5]
  activation of ciVDR/PXR: activated

## COC(=O)/C=C/c1cccc(N(Cc2ccc(-c3ccc(N(C)C)cc3)cc2)C(=O)C2CCCCC2)c1 [fexaramine]
[1]
  Effect on Xenopus laevis VDR: None of these three VDRs were activated
[6]
  Effect on sea lamprey VDR: None of these three VDRs were activated
[3]
  Effect on zebrafish VDR: None of these three VDRs were activated

## CCCCOC(=O)c1ccc(N)cc1 [n-Butyl 4-aminobenzoate]
[1]
  Effect on Xenopus laevis VDR: No effect
[5]
  activation of ciVDR/PXR: activated
[6]
  Effect on sea lamprey VDR: No effect
[3]
  Effect on zebrafish VDR: No effect

## CCCOC(=O)c1ccc(O)cc1 [n-Propyl 4-hydroxybenzoate]
[1]
  Effect on Xenopus laevis VDR: No effect
[6]
  Effect on sea lamprey VDR: No effect
[3]
  Effect on zebrafish VDR: No effect

## C[C@H](CCC(=O)O)[C@H]1CC[C@H]2[C@@H]3[C@@H](O)[C@H](O)[C@@H]4C[C@H](O)CC[C@]4(C)[C@H]3CC[C@]12C [w-Muricholic acid]
[1]
  Effect on Xenopus laevis VDR: No effect
[6]
  Effect on sea lamprey VDR: No effect
[3]
  Effect on zebrafish VDR: No effect

## AM-580
[1]
  Effect on Xenopus laevis VDR: No effect
[6]
  Effect on sea lamprey VDR: No effect
[3]
  Effect on zebrafish VDR: No effect

## Hyperforin
[1]
  Effect on Xenopus laevis VDR: No effect
[6]
  Effect on sea lamprey VDR: No effect
[3]
  Effect on zebrafish VDR: No effect
